Data published in patent US8835428B2, “Diacylglycerol acyltransferase inhibitors” (Piramal Enterprises Limited, priority 2008, dated 2014).

Target: T1, hDGAT1 (Homo sapiens, UniProt O75907)
T1 construct: host or cells: Sf9 insect cells (baculovirus); microsomal preparation
T1 sequence (O75907 1-488): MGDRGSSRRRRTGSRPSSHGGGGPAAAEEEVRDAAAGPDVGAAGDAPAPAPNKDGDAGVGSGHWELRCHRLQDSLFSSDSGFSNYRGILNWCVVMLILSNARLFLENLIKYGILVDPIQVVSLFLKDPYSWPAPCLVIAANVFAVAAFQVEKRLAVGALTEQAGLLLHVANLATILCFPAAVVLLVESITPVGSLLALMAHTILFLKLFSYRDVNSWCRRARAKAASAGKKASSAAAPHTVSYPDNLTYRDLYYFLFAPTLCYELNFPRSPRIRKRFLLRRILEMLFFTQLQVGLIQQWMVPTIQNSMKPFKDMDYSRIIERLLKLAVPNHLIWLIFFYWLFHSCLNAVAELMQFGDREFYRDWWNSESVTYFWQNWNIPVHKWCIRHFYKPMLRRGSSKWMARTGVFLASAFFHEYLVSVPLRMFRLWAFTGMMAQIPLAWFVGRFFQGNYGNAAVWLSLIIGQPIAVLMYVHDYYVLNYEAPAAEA
Experiment: In-vitro DGAT1 assay (hDGAT1 microsomes from Sf9 cells, 14C oleoyl CoA, triglyceride formation)
Format: biochemical
Method in brief: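 Human DGAT1 in baculovirus-infected Sf9 microsomes (2.5–10 μg), [14C]oleoyl-CoA with 409.5, 1228.5 or 1638 μM 1,2-dioleoyl-sn-glycerol, Tris-HCl pH 7.4 buffer with BSA. Compounds screened at 10, 5 and 1 μM in duplicate. Reaction 10 min at 37 °C; heptane-extracted [14C]triglyceride counted by scintillation.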

SMILES	inhibition at 1 µM [%]	inhibition at 10 µM [%]	further results
CC(C)[C@H](NC(=O)c1cc(-c2ccc(NC(=O)Nc3ccccc3C(F)(F)F)cc2)no1)C(=O)O [Example 164, (S)-3-methyl-2-(3-(4-(3-(2-(trifluoromethyl)phenyl)ureido)phenyl)isoxazole-5-carboxamido)butanoic acid]	75 to 100	–	–
Cc1ccc(NC(=O)Nc2ccc(-c3cc(C(=O)NC(C(=O)O)C(C)C)on3)cc2)cc1 (stereo not shown) [Example 126, 3-Methyl-2-(3-(4-(3-p-tolylureido)phenyl)isoxazole-5-carboxamido) butanoic acid]	–	75 to 100	–
COC(=O)[C@@H](NC(=O)c1cc(-c2ccc(NC(=O)Nc3cccc(C)c3)cc2)no1)C(C)C [Example 265, (S)-methyl 3-methyl-2-(3-(4-(3-m-tolylureido)phenyl)isoxazole-5-carboxamido)butanoate]	–	–	inhibition at 5 µM: 50 to 75%
Cc1ccc(Cl)c(NC(=O)Nc2ccc(-c3cc(C(=O)N[C@H](C(=O)O)C(C)C)on3)cc2)c1 [Example 189, (S)-2-(3-(4-(3-(2-chloro-5-methylphenyl)ureido)phenyl)isoxazole-5-carboxamido)-3-methylbutanoic acid]	75 to 100	–	–
CC(C)[C@H](NC(=O)c1cc(-c2ccc(NC(=O)Nc3ccc(F)c(F)c3F)cc2)no1)C(=O)O [Example 191, (S)-3-Methyl-2-(3-(4-(3-(2,3,4-trifluorophenyl)ureido)phenyl)isoxazole-5-carboxamido)butanoic acid]	75 to 100	–	–
COC(=O)C(NC(=O)c1cc(-c2ccc(NC(=O)Nc3ccccn3)cc2)no1)C(C)C (stereo not shown) [Example 279, Methyl 3-methyl-2-(3-(4-(3-pyridin-2-ylureido)phenyl)isoxazole-5-carboxamido)butanoate]	–	–	inhibition at 5 µM: 0 to 50%
NC(=O)c1cc(-c2ccc(Nc3nc4ccc(F)cc4s3)cc2)no1 [Example 3, 3-[4-(6-Fluoro-benzothiazol-2-ylamino)-phenyl]-isoxazole-5-carboxylic acid amide]	–	0 to 50	–
COC(=O)C(NC(=O)c1cc(-c2ccc(NC(=O)Nc3cccc(F)c3)cc2)no1)C(C)C (stereo not shown) [Example 151, Methyl 2-(3-(4-(3-(3-fluorophenyl)ureido)phenyl)isoxazole-5-carboxamido)-3-methylbutanoate]	–	–	inhibition at 5 µM: 50 to 75%
Cc1ccc(NC(=O)Nc2ccc(-c3cc(C(=O)NC(C(=O)O)C(C)C)on3)cc2)cc1Cl (stereo not shown) [Example 248, 2-(3-(4-(3-(3-Chloro-4-methylphenyl)ureido)phenyl)isoxazole-5-carboxamido)-3-methylbutanoic acid]	75 to 100	–	–
COC(=O)[C@H](C(C)C)N(C)C(=O)c1cc(-c2ccc(NC(=O)NC3CCCCC3)cc2)no1 [Example 311, (S)-methyl 2-(3-(4-(3-cyclohexylureido)phenyl)-N-methylisoxazole-5-carboxamido)-3-methylbutanoate]	50 to 75	–	–
CC(C)[C@H](NC(=O)c1cc(-c2ccc(NC(=O)Nc3cc(C(F)(F)F)ccc3Cl)cc2)no1)C(=O)O [Example 211, (S)-2-(3-(4-(3-(2-chloro-5-(trifluoromethyl)phenyl)ureido)phenyl)isoxazole-5-carboxamido)-3-methylbutanoic acid]	75 to 100	–	–
CC(C)C(NC(=O)c1cc(-c2ccc(NC(=O)Nc3ccc(F)cc3F)c(F)c2)no1)C(=O)O (stereo not shown) [Example 150, 2-(3-(4-(3-(2,4-Difluorophenyl)ureido)-3-fluorophenyl)isoxazole-5-carboxamido)-3-methylbutanoic acid]	–	75 to 100	–
COC(=O)C(NC(=O)c1cc(-c2ccc(NC(=O)Nc3c(F)cccc3F)cc2)no1)C(C)C (stereo not shown) [Example 123, Methyl 2-(3-(4-(3-(2,6-difluorophenyl)ureido)phenyl)isoxazole-5-carboxamido)-3-methylbutanoate]	–	50 to 75	–
COC(=O)C(NC(=O)c1cc(-c2ccc(NC(=O)Nc3ccc(F)cc3F)cc2C)no1)C(C)C (stereo not shown) [Example 137, Methyl 2-(3-(4-(3-(2,4-difluorophenyl)ureido)-2-methylphenyl)isoxazole-5-carboxamido)-3-methylbutanoate]	–	0 to 50	–
COC(=O)[C@H](CC(C)C)NC(=O)c1cc(-c2ccc(NC(=O)NC3CCCCC3)cc2)no1 [Example 82, (S)-2-({3-[4-(3-cyclohexyl-ureido)-phenyl]-isoxazole-5-carbonyl}-amino)-4-methyl-pentanoic acid methyl ester]	–	0 to 50	–
CC(C)C(NC(=O)c1cc(-c2ccc(NC(=O)C(=O)Nc3ccc(F)cc3F)cc2)no1)C(=O)O (stereo not shown) [Example 339, 2-(3-(4-(2-(2,4-difluorophenylamino)-2-oxoacetamido)phenyl)isoxazole-5-carboxamido)-3-methylbutanoic acid]	0 to 50	–	–
COC(=O)[C@@H](NC(=O)c1nc(-c2ccc(NC(=S)Nc3ccccc3)cc2)no1)C(C)C [Example 357, (S)-methyl 3-methyl-2-(3-(4-(3-phenylthioureido)phenyl)-1,2,4-oxadiazole-5-carboxamido)butanoate]	–	–	inhibition at 5 µM: 0 to 50%
COC[C@H](NC(=O)c1cc(-c2ccc(Nc3nc4ccc(F)cc4s3)cc2)no1)C(=O)O [Example 13, (S)-2-({3-[4-(6-Fluoro-benzothiazol-2-ylamino)-phenyl]-isoxazole-5-carbonyl}-amino)-3-methoxy-propionic acid]	–	75 to 100	–
COC(=O)[C@@H](NC(=O)c1onc(-c2ccc(NC(=O)Nc3ccc(F)cc3)cc2)c1-c1ccccc1)C(C)C [Example 92, (S)-2-[(3-{4-[3-(4-Fluoro-phenyl)-ureido]-phenyl}-4-phenyl-isoxazole-5-carbonyl)-amino]-3-methyl-butyric acid methyl ester]	–	0 to 50	–
O=C(O)CNC(=O)c1cc(-c2ccc(Nc3nc4ccc(F)cc4s3)cc2)no1 [Example 59, ({3-[4-(6-Fluoro-benzothiazol-2-ylamino)-phenyl]-isoxazole-5-carbonyl}-amino)-acetic acid]	–	0 to 50	–
COC[C@H](NC(=S)c1cc(-c2cccc(Nc3nc4ccc(F)cc4s3)c2)no1)C(=O)OC [Example 30, (S)-2-({3-[3-(6-Fluoro-benzothiazol-2-ylamino)-phenyl]-isoxazole-5-carbothioyl}-amino)-3-methoxy-propionic acid methyl ester]	–	0 to 50	–
CC(C)CC(NC(=O)c1cc(-c2ccc(NC(=O)Nc3ccc(F)cc3F)cc2)no1)C(=O)O (stereo not shown) [Example 114, 2-(3-(4-(3-(2,4-Difluorophenyl)ureido)phenyl)isoxazole-5-carboxamido)-4-methylpentanoic acid]	–	75 to 100	–
CC(C)[C@H](NC(=O)c1cc(-c2ccc(NC(=O)Nc3ccc(Cl)cc3F)cc2)no1)C(=O)O [Example 193, (S)-2-(3-(4-(3-(4-chloro-2-fluorophenyl)ureido)phenyl)isoxazole-5-carboxamido)-3-methylbutanoic acid]	75 to 100	–	–
COc1ccccc1NC(=O)Nc1ccc(-c2cc(C(=O)N[C@H](C(=O)O)C(C)C)on2)cc1 [Example 185, (S)-2-(3-(4-(3-(2-methoxyphenyl)ureido)phenyl)isoxazole-5-carboxamido)-3-methylbutanoic acid]	75 to 100	–	–
COC[C@H](NC(=O)c1cc(-c2cccc(Nc3nc4ccc(F)cc4s3)c2)no1)C(=O)O [Example 29, (S)-2-({3-[3-(6-Fluoro-benzothiazol-2-ylamino)-phenyl]-isoxazole-5-carbonyl}-amino)-3-methoxy-propionic acid]	–	0 to 50	–
